According to patent US20150148372A1, “BICYCLIC HETEROCYCLES AS BET PROTEIN INHIBITORS” (Incyte Corporation, priority 2013, published 2015):

Assays:
BRD4-BD1 = biological target: T1, BRD4-BD1 (Homo sapiens, UniProt O60885); assay: BRD4 AlphaScreen assay, BD1; type: binding; settings: H4Ac4 peptide, 3.8 nM BRD4-BD1, read-out: BRD4 BD-1 enzyme IC50
T1 construct: 3.8 nM (BRD4-BD1, BPS Bioscience #31040); purchased BPS Bioscience 31040
Procedure: (§1) BRD4-BD1 and BRD4-BD2 assays were conducted in white 384-well polystyrene plate in a final volume of 20 μL for BD1 and 40 μL for BD2. Inhibitors were first serially diluted in DMSO and added to the plate wells before the addition of other reaction components. The final concentration of DMSO in the assay was 1.25% (BD1) and 0.83% (BD2). The assays were carried out at room temperature for 75 min. in the assay buffer (50 mM HEPES, pH 7.4, 100 mM NaCl, 0.05% CHAPS, 0.01% BSA), containing 50 nM Biotin-labeled tetra-acetylated histone H4 peptide (H4Ac4), 3.8 nM (BRD4-BD1, BPS Bioscience #31040) or 20 nM (BRD4-BD2, BPS Bioscience #31041). The reaction followed by the addition of 20 μL of assay buffer supplemented with Streptavidin donor beads (PerkinElmer 6760002) and GSH Acceptor beads (PerkinElmer-AL 109C) at 4 μg/mL under reduced light. After plate sealing, the plate was incubated in the dark at room temperature for 75 min. before reading on a PHERAstar FS plate reader (BMG Labtech). IC50 determination was performed by fitting the curve of percent control activity versus the log of the inhibitor concentration using the GraphPad Prism 5.0 software. IC50 data for the Examples is presented in Table 1 as determined by Assay A1.

BRD4-BD2 = biological target: T2, BRD4-BD2 (Homo sapiens, UniProt O60885); assay: BRD4 AlphaScreen assay, BD2; type: binding; settings: H4Ac4 peptide, 20 nM BRD4-BD2, read-out: BRD4 BD-2 enzyme IC50
T2 construct: 20 nM (BRD4-BD2, BPS Bioscience #31041); purchased BPS Bioscience 31041
Procedure: as §1

IC50 (BRD4-BD1) [µM]	IC50 (BRD4-BD2) [µM]	SMILES
1 to 10	0.1 to 1	Cn1cc(-c2c(Oc3ccc(F)cc3F)ccc3[nH]c(=O)[nH]c23)c2cc[nH]c2c1=O [Example 1, 5-(2,4-Difluorophenoxy)-4-(6-methyl-7-oxo-6,7-dihydro-H-pyrrolo[2,3-c]pyridin-4-yl)-1,3-dihydro-2H-benzimidazol-2-one]
1 to 10	≤ 0.1	Cn1cc(-c2c(Oc3ccc(F)cc3F)ccc3[nH]cnc23)c2cc[nH]c2c1=O [Example 2, 4-[5-(2,4-Difluorophenoxy)-1H-benzimidazol-4-yl]-6-methyl-1,6-dihydro-7H-pyrrolo[2,3-c]pyridin-7-one]
